In patent publication US11413278B2, “Compounds and methods for promoting stress resistance” (priority 2015, dated 2022):
Where two headings read alike, the source gives them in different places.

Columns and labels:
NRF2 = assay: qPCR analysis of NRF2-regulated genes; format: cell-based, human; details: for fold induction at 10 µM: Homo sapiens
Summary of the method: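 WI-38 cells treated with compound at 10 μM for 24 hrs, then processed by Cells-to-Ct for RNA isolation, RT and qPCR of NRF2-regulated genes (HMOX1, NQO1, GCLC, GSTM1). Expression normalized to B2M, PPIA and GAPDH; siRNA knockdown of FOXO3 or NRF2 (10 nM) preceded treatment in some runs.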

LC3A/B puncta = assay: Autophagy induction analysis (LC3A/B puncta immuno-staining); format: cell-based, human; details: for Exp. 2, normalized change of nuclei numbers (Less cells): 20X objective, lysosomal LAMP co-staining
Description: Immuno-staining of LC3A/B was performed, following a standard protocol. Briefly, WI-38 cells were treated with small molecules for 24 hrs, and then processed and incubated with primary antibody (Cell Signaling, rabbit anti-LC3A/B, 1:100) overnight at 4° C. Next day, samples were processed and incubated with fluorophore-conjugated secondary antibody and further incubated with DAPI dye. Images were collected on the INCell Analyzer 2000 (Experiment 1: 10× objective; Experiment 2: 20× objective) and analyzed with the Developer Toolbox. For Experiment 2, lysosomal-associated membrane protein 2 (LAMP2) was also counter-stained to identify the LC3A/B puncta that colocalize with lysosome and the data were analyzed by the MetaXpress software (Molecular Devices, version 5.1). The intensity of total (Exp. 1) or LAMP2-colocalized LC3A/B puncta (Exp. 2) was normalized the total numbers nuclei in the fields.
These assays were performed, following the same procedures to analyze DNA-damage markers. WI-38 cells were incubated with small molecules for 24 hrs, and then processed and incubated with primary antibody (rabbit anti-LC3A/B, 1:100) overnight at 4 C. The next day, samples were processed and incubated with fluorophore-conjugated secondary antibody and further incubated with DAPI dye. Images were collected on an INCell Analyzer 2000 and analyzed with the Developer software. Total LC3A/B puncta intensity was normalized the total numbers of DAPI-positive nuclei.

WI-38 cells = assay: Long-term effects on cell viability (5 days, ATP; morphology, PI imaging); format: cell-based; details: for viability at 10 µM: Homo sapiens, WI-38, 120 h, read-out: ATP luminescence by day-5 normalized; for O = Potential toxicity / Q = Potential toxicity: human, 5 days;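 for Luminescence signal for ATP measurement, day-2 Average: compounds at 10 µM with ATP read daily over 5 days of treatment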;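 for Luminescence signal for ATP measurement, day-3 Average: compounds at 10 µM with ATP read daily over 5 days of treatment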;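 for Luminescence signal for ATP measurement, day-4 Average: compounds at 10 µM with ATP read daily over 5 days of treatment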;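 for Luminescence signal for ATP measurement, day-5 Average: compounds at 10 µM with ATP read daily over 5 days of treatment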
[1] = rounded fold change, WI-38 cells, 10 μM, 24 hrs (RP11 for Gr-1D, RP29 for Gr-4D), read-out: Summary of effects on NRF2-regulated genes: HMOX1
[2] = 10 μM, 24 hrs, WI-38 cells, qPCR, normalized to B2M, n = 4, read-out: HMOX1 expression, normalized fold change (NRF2-regulated gene)
[3] = WI-38 cells, 10 μM, 24 hrs, n=4, qPCR normalized by B2M, read-out: GCLC Normalized fold change
[4] = WI-38 cells, 10 μM, 24 hrs, n=4, qPCR normalized by B2M, read-out: GSTM1 Normalized fold change
[5] = WI-38 cells, 10 μM, 24 hrs, n=4, qPCR normalized by B2M, read-out: HMOX1 Normalized fold change
[6] = WI-38 cells, 10 μM, 24 hrs, n=4, qPCR normalized by B2M, read-out: NQO1 Normalized fold change
[7] = Batch 1, 10 μM, day-1, n = 6, day-0 luminescence = 320956 ± 24708
[8] = Batch 1, 10 μM, day-2, n = 6, day-0 luminescence = 320956 ± 24708
[9] = Batch 1, 10 μM, day-3, n = 6, day-0 luminescence = 320956 ± 24708
[10] = Batch 1, 10 μM, day-4, n = 6, day-0 luminescence = 320956 ± 24708
[11] = Batch 1, 10 μM, day-5, n = 6, day-0 luminescence = 320956 ± 24708
[12] = Batch 1, 10 μM, day-5, DMSO ctrl = 100.0%
[13] = Exp. 1, 10 μM, 10X objective, WI-38 cells

## CNC(=O)/C(C#N)=C/c1c(Oc2ccc(C(C)(C)C)cc2)nc2ccccn2c1=O [Gr-5D]
NRF2; 10 μM, 24 hrs, WI-38 cells, qPCR, normalized to B2M, n = 4
  TXNIP expression, normalized fold change (printed in the column of NRF2-regulated genes): TXNIP 0.67, fold
NRF2; 2-point score
  F = Potential NRF2 Activation: 2
NRF2; Assay 12(o), at 10 uM, qPCR
  Induction of NRF2-regulated genes: TXNIP normalized fold-change: TXNIP 0.67, fold-change
NRF2; Assay 13(p)
  Potential NRF2 Activation (>=2 target genes induced, by >=1.5-fold): YES
NRF2; 24 h, Assay 12(o), at 10 uM, qPCR, read-out: Induction of NRF2-regulated genes: HMOX1 normalized fold-change
  fold induction at 10 µM: 2.49
NRF2; 24 h, Assay 12(o), at 10 uM, qPCR, read-out: Induction of NRF2-regulated genes: NQO1 normalized fold-change
  fold induction at 10 µM: 1.78
NRF2; [1]
  fold induction at 10 µM: 2.49
NRF2; rounded fold change, WI-38 cells, 10 μM, 24 hrs (RP29 for Gr-4D), read-out: Summary of effects on NRF2-regulated genes: NQO1
  fold induction at 10 µM: 1.78
NRF2; 10 μM, 24 hrs, WI-38, read-out: Expression of at least two NRF2 target genes
  fold induction at 10 µM: > 1.5
NRF2; [2]
  fold induction at 10 µM: 2.49
NRF2; 10 μM, 24 hrs, WI-38 cells, qPCR, normalized to B2M, n = 4, read-out: NQO1 expression, normalized fold change (NRF2-regulated gene)
  fold induction at 10 µM: 1.78
NRF2; [3]
  fold induction at 10 µM: 0.886
NRF2; [4]
  fold induction at 10 µM: 1.17
NRF2; [5]
  fold induction at 10 µM: 2.49
NRF2; [6]
  fold induction at 10 µM: 1.78
NRF2; fold change, WI-38 cells, 10 μM, 24 hrs
  Summary of effects on NRF2-regulated genes: TXNIP: 0.67,
NRF2; summary score
  F = Potential NRF2 Activation: 2
LC3A/B puncta; score
  H = Potential Autophagy Induction: 0
LC3A/B puncta; summary score
  H = Potential Autophagy Induction: 0
WI-38 cells; [7]
  Luminescence signal for ATP measurement, day-1 Average: 498641
WI-38 cells; [8]
  Luminescence signal for ATP measurement, day-2 Average: 763806
WI-38 cells; [9]
  Luminescence signal for ATP measurement, day-3 Average: 920681
WI-38 cells; [10]
  Luminescence signal for ATP measurement, day-4 Average: 1052285
WI-38 cells; [11]
  Luminescence signal for ATP measurement, day-5 Average: 1110868
WI-38 cells; [12]
  viability at 10 µM: 108%
WI-38 cells; 10 μM
  O = Potential toxicity: 0
  Q = Potential toxicity: 0

## Oc1ccccc1-c1noc(-c2ccccc2O)n1 [O27]
NRF2; 2-point score
  F = Potential NRF2 Activation: 0
NRF2; summary score
  F = Potential NRF2 Activation: 0
LC3A/B puncta; score
  H = Potential Autophagy Induction: 0
LC3A/B puncta; summary score
  H = Potential Autophagy Induction: 0
WI-38 cells
  Luminescence signal for ATP measurement, day-1 Average: 431303
  Luminescence signal for ATP measurement, day-2 Average: 437195
  Luminescence signal for ATP measurement, day-3 Average: 517210
  Luminescence signal for ATP measurement, day-4 Average: 634360
  Luminescence signal for ATP measurement, day-5 Average: 587798
  viability at 10 µM: 57.2%
WI-38 cells; 10 μM
  O = Potential toxicity: 0
  Q = Potential toxicity: 1

## O=C(Nc1cccc(Cl)c1)c1ccc([N+](=O)[O-])o1 [Gr-1D]
NRF2; 2-point score
  F = Potential NRF2 Activation: 0
NRF2; [1]
  fold induction at 10 µM: 4.68
NRF2; [2]
  fold induction at 10 µM: 4.68
NRF2; [3]
  fold induction at 10 µM: 1.08
NRF2; [4]
  fold induction at 10 µM: 1.17
NRF2; [5]
  fold induction at 10 µM: 4.68
NRF2; [6]
  fold induction at 10 µM: 0.878
NRF2; run RP42 (Gr-1D) / RP52 (Gr-4D), WI-38 cells, 10 μM
  Summary of effects on NRF2-regulated genes: HMOX1, second run: 5.86,
NRF2; run RP42 (Gr-1D), WI-38 cells, 10 μM
  Summary of effects on NRF2-regulated genes: GCLC, second run: 0.79,
NRF2; summary score
  F = Potential NRF2 Activation: 0
LC3A/B puncta; 10 uM & 20 uM, YES/NO
  Assay 15: Potential autophagy induction by LC3A/B puncta assays: YES
LC3A/B puncta; [13]
  Exp. 1, induction of LC3A/B puncta (Up), total intensity normalized by total number of nuclei in the fields: p < 0.05; Up, 617%,
  Exp. 1, normalized change of nuclei numbers (Less cells): Less cells, 67%,
LC3A/B puncta; Exp. 2, 10 μM, WI-38 cells
  Exp. 2, normalized change of nuclei numbers (Less cells): Less cells, 67%,
LC3A/B puncta; Exp. 2, 20 μM, WI-38 cells
  Exp. 2, normalized change of nuclei numbers (Less cells): Less cells, 73%,
LC3A/B puncta; score
  H = Potential Autophagy Induction: 1
LC3A/B puncta; summary score
  H = Potential Autophagy Induction: 1
WI-38 cells; [7]
  Luminescence signal for ATP measurement, day-1 Average: 396843
WI-38 cells; [8]
  Luminescence signal for ATP measurement, day-2 Average: 497248
WI-38 cells; [9]
  Luminescence signal for ATP measurement, day-3 Average: 542643
WI-38 cells; [10]
  Luminescence signal for ATP measurement, day-4 Average: 797305
WI-38 cells; [11]
  Luminescence signal for ATP measurement, day-5 Average: 865168
WI-38 cells; [12]
  viability at 10 µM: 84.3%
WI-38 cells; 10 μM
  O = Potential toxicity: 1
  Q = Potential toxicity: 0
